Results on four molecules are retold here after PMC7946228, “Discovery of novel candidates for anti-liposarcoma therapies by medium-scale high-throughput drug screening” (PLoS ONE, 2021).

Each structure is given as a SMILES string. Read-outs that look alike come from different tables or passages of the source.

Data set [1] relates to liposarcoma cell lines. The data set is described as follows: TUNEL apoptosis assay by flow cytometry. It is filed as cell-based, human. As to conditions: growth arresting concentration, 17-72h, majority of cell lines. As to the method: (§1) Cells were treated with drugs at the concentrations corresponding to previously established growth arresting concentrations and collected between 17 and 72h. Time of collection was individual for every drug/cell line combination; cells were collected after the beginning of complete growth inhibition (based on the growth curves data) but only when first signs of morphological change or cell death were visible (estimated microscopically approximately every 2h). After methanol fixation, cells were barcoded with different combinations of Pacific Blue/Pacific Orange dyes (Thermo Fisher Scientific) for different drug treatments. After mixing, cells were incubated in the TUNEL reaction mix for 1h at 37°C, according to the manufacturer’s instructions (Roche, Germany), stained with Streptavidin-Cy5 conjugated Ab and digested with RNAse. Cells were counter-stained with propidium iodide and analyzed using LSR II Flow Cytometer (BD Biosciences, NJ, USA. The data were processed with FlowJo Version 7.6.5 (Tree Star, Ashland, USA). The gating strategy is presented in Fig 3A. Cy-5 positive cells (as compared to control sample) were calculated as apoptotic. Cell cycles of non-apoptotic cells were analyzed using the built in FlowJo Cell Cycle Analysis module. Three independent biological replicates were done for each cell line/drug combination with exception of FU-DDLS-1 and T1000 –for which we only had two replicates available.

For data set [2] the following is noted: cited from earlier work.
Data set [3] deals with liposarcoma cell lines. The data set is described as follows: Cell cycle analysis of non-apoptotic cells (propidium iodide). Format: cell-based, human. As to conditions: growth arresting concentration, non-apoptotic fraction. As to the method: as §1
In data set [4] the test system is T1000 liposarcoma cell line. Description: CellTiter-Glo viability, GR50, 72h. It is filed as cell-based, human. As to conditions: Homo sapiens; T1000, 72h; read-out: Half maximum effective concentration corrected for cell growth (GR50). As to the method:
(§2) Cell viability was measured using the CellTiter-Glo Luminescent Cell Viability Assay (Promega, Wisconsin, United States). For each experiment the same cell numbers were seeded as for the proliferation experiments. Seven drug concentrations were used, starting from 100μM with 10-fold dilutions and also a vehicle control appropriate for each drug (DMSO or ethanol). After 72h of drug or vehicle control treatment levels of ATP were measured with CellTiter-Glo. The data from six to nine biological replicates, each with three technical replicates were collected. A nonlinear regression model with different four-parameter log-logistic function was used for modelling of the drug dose-response using ‘GRmetrics’ R package version 1.8.1 [26]. The calculated GR50 metric is equivalent to the IC50 metric but takes into account the growth rate of cells. Therefore, it estimates better the effect of the compound on cell viability and allows for comparison between different cell lines with different growth rates.
A general note: Cellular ATP, detected with luciferase, serves as a proxy for viable cell number.

The test system of data set [5] is LS2 liposarcoma cell line. The data set is described as follows: CellTiter-Glo viability, GR50, 72h. It is filed as cell-based, human. As to conditions: Homo sapiens; LS2, 72h; read-out: Half maximum effective concentration corrected for cell growth (GR50). As to the method:
as §2

The test system of data set [6] is LiSa-2 liposarcoma cell line. The data set is described as follows: CellTiter-Glo viability, GR50, 72h. Format: cell-based, human. As to conditions: Homo sapiens; LiSa-2, 72h; read-out: Half maximum effective concentration corrected for cell growth (GR50). The protocol:
as §2

Data set [7] has as its system T449 liposarcoma cell line. Description: CellTiter-Glo viability, GR50, 72h. It is filed as cell-based, human. As to conditions: Homo sapiens; T449, 72h; read-out: Half maximum effective concentration corrected for cell growth (GR50). As to the method: as §2
In data set [8] the test system is GOT3 liposarcoma cell line. The data set is described as follows: CellTiter-Glo viability, GR50, 72h. As to conditions: Homo sapiens; GOT3, 72h; read-out: Half maximum effective concentration corrected for cell growth (GR50). Format: cell-based, human. The protocol:
as §2

For data set [9], the system named is FU-DDLS-1 liposarcoma cell line. Description: CellTiter-Glo viability, GR50, 72h. As to conditions: Homo sapiens; FU-DDL S-1, 72h; read-out: Half maximum effective concentration corrected for cell growth (GR50). It is filed as cell-based, human. As to the method:
as §2

The subject of data set [10] is NRH-LS1 liposarcoma cell line. Description: CellTiter-Glo viability, GR50, 72h. Format: cell-based, human. As to conditions: Homo sapiens; NRH-LS1, 72h; read-out: Half maximum effective concentration corrected for cell growth (GR50). As to the method: as §2
In data set [11] the test system is LPS510 liposarcoma cell line. Description: CellTiter-Glo viability, GR50, 72h. It is filed as cell-based, human. As to conditions: Homo sapiens; LPS 510, 72h; read-out: Half maximum effective concentration corrected for cell growth (GR50). As to the method: as §2
For data set [12], the system named is T778 liposarcoma cell line. Description: CellTiter-Glo viability, GR50, 72h. Format: cell-based, human. As to conditions: Homo sapiens; T778, 72h; read-out: Half maximum effective concentration corrected for cell growth (GR50). The protocol:
as §2

Data set [13] concerns SW872 liposarcoma cell line. The data set is described as follows: CellTiter-Glo viability, GR50, 72h. It is filed as cell-based, human. As to conditions: Homo sapiens, SW872; SW 872, 72h; read-out: Half maximum effective concentration corrected for cell growth (GR50). As to the method: as §2
For data set [14], the system named is SA-4 liposarcoma cell line. The data set is described as follows: CellTiter-Glo viability, GR50, 72h. It is filed as cell-based, human. As to conditions: Homo sapiens; SA-4, 72h; read-out: Half maximum effective concentration corrected for cell growth (GR50). As to the method: as §2
In data set [15] the test system is LPS853 liposarcoma cell line. Description: CellTiter-Glo viability, GR50, 72h. It is filed as cell-based, human. As to conditions: Homo sapiens; LPS 853, 72h; read-out: Half maximum effective concentration corrected for cell growth (GR50). The protocol:
as §2

The subject of data set [16] is LPS141 liposarcoma cell line. Description: CellTiter-Glo viability, GR50, 72h. It is filed as cell-based, human. As to conditions: Homo sapiens, LPS141; LPS 141, 72h; read-out: Half maximum effective concentration corrected for cell growth (GR50). The protocol: as §2

As to `O=C(/C=C/c1cccnc1)NCCCCC1CCN(C(=O)c2ccccc2)CC1` [APO866], the “apoptosis (increase in % of apoptotic cells)” value with liposarcoma cell lines [1] was ≤ 5%. In data set [2] (24 patients with advanced solid malignancies), the “mean steady state serum concentration (Css)” value was 14 nM. In the data set on liposarcoma cell lines [3], the “cell cycle phase in which cells are blocked” value (“cell cycle phase” for short) is recorded as “less specific arrest”. Besides, the IC50 in data set [4] is 6 nM; in data set [5], 8 nM; in [6], 8 nM; in data set [7], 1 nM; in data set [8], 5 nM; in [9] it was 1 nM. For the same molecule, the IC50 in [10] was 1 nM; in data set [11], 3 nM; in data set [12], 3 nM; in [13], 4 nM; in data set [14] it was 10 nM; in data set [15] it was 1 nM. Also, the IC50 in data set [16] was determined as 6 nM.

As to `Cn1cc(CNCC2CCN(c3ncc(C(=O)NO)cn3)CC2)c2ccccc21` [JNJ-26481585], in the data set on liposarcoma cell lines [1], the “apoptosis (increase in % of apoptotic cells)” value was “above 5%”. For the same molecule, the Cmax in data set [2] (dosing schedule recommended for phase II, patients with solid tumors) is 1.5 to 14 nM. For the same molecule, in the data set with liposarcoma cell lines [3], the “cell cycle phase” value is “G1 and G2 phases”. Further, the IC50 in data set [4] was determined as 10 nM; in [5], 94 nM; in data set [6], 21 nM; in data set [7] it was 25 nM; in data set [8] it was 22 nM; in data set [9], 12 nM. In addition, the IC50 was found to be 103 nM in data set [10]; 33 nM in data set [11]; 25 nM in [12]; 70 nM in [13]; 44 nM in [14]; 18 nM in [15]. For the same molecule, in [16], the IC50 is 102 nM.

For the molecule `CC(C)[C@]12O[C@H]1[C@@H]1O[C@]13[C@]1(O[C@H]1C[C@H]1C4=C(CC[C@@]13C)C(=O)OC4)[C@@H]2O` [Triptolide], the “apoptosis (increase in % of apoptotic cells)” value with liposarcoma cell lines [1] is on record as “above 15%”. Besides, the Cmax in data set [2] (read-out: maximum therapeutic plasma concentration (Cmax), in humans) was 150 to 400 nM. For the same molecule, in the data set on liposarcoma cell lines [3], the “cell cycle phase” value is “S phase”. In addition, the IC50 is 8 nM in data set [4]; 6 nM in [5]; 9 nM in data set [6]; 8 nM in data set [7]; 7 nM in [8]; 8 nM in [9]. Further, the IC50 in data set [10] was 7 nM; in data set [11] it was 5 nM; in data set [12] it was 8 nM; in data set [13], 2 nM; in data set [14] it was 13 nM; in data set [15] it was 5 nM. Further, in [16], the IC50 turned out to be 12 nM.

With `COCCn1c2c([n+](Cc3cnccn3)c1C)C(=O)c1ccccc1C2=O` [YM155], the “apoptosis (increase in % of apoptotic cells)” value in the data set with liposarcoma cell lines [1] was “above 5%”. Further, the Css in data set [2] (phase I, maximum tolerated dose) is recorded as 17 nM. The Cmax in data set [2] (read-out: clinically relevant concentration (Cmax or Css), values show Cmax or Css (italics), patients) was 17 nM. The “cell cycle phase” value with liposarcoma cell lines [3] is “less specific arrest”. The IC50 in [4] worked out at 17 nM; in data set [5] it was 358 nM; in [6], 234 nM; in data set [7], 712 nM; in data set [8], 187 nM; in [9] it was 49 nM. Moreover, the IC50 turned out to be 69 nM in data set [10]; 93 nM in data set [11]; 96 nM in [12]; 2 nM in data set [13]; 30 nM in [14]; 4 nM in data set [15]. Moreover, in data set [16], the IC50 is 11 nM.
